Measurements as given in patent US7049309B2, “3-Thia-4-arylquinolin-2-one potassium channel modulators” (Bristol-Myers Squibb Company, priority 2003, dated 2006).

What was measured:
[1] = system: cloned mammalian (mSlo or hSlo) BK channels heterologously expressed in Xenopus oocytes; assay: Assay for BK channel openers: two-electrode voltage clamp of BK-mediated outward current in Xenopus oocytes; type: cell-based; conditions: percent increase over BK current in controls, voltage step to +140 mV, IBTX-sensitive current
Procedure: The ability of the compounds of the invention to open BK channels and increase whole-cell outward (K^+) BK-mediated currents was assessed under voltage-clamp conditions by determining their ability to increase cloned mammalian (mSlo or hSlo) BK-mediated outward current heterologously expressed in Xenopus oocytes [Butler, A., et al., Science 1993, 261, 221–224; Dworetzky, S. I., et al., Mol. Brain Res. 1994, 27, 189–193; Gribkoff, V. K., et al., Mol. Pharmacol. 1996, 50, 206–217]. The two BK constructs employed represent nearly structurally identical homologous proteins, and have proven to be pharmacologically indistinguishable in our tests. To isolate BK current from native (background, non-BK) current, the specific and potent BK channel-blocking toxin iberiotoxin (IBTX) [Galvez, A., et al., J. Biol. Chem. 1990, 265, 11083–11090] was employed at a supramaximal concentration, e.g., 50–100 nanomolar (“nM”). The relative contribution of BK channel-mediated current to total outward current was determined by subtraction of the current remaining in the presence of IBTX (non-BK current) from the current profiles obtained in all other experimental conditions (control, drug, and wash) [Gribkoff, V. K. et al., Mol. Pharmacol. 1996, 50, 206–217]. […] All compounds were tested in 5–10 oocytes and are reported at the indicated concentration of 20 micromolar (“μM”) (or as otherwise indicated); the effect of the selected compounds of the invention on BK current was expressed as the percent of control IBTX-sensitive current at a single transmembrane voltage (+140 mV) and is listed in Table 1. Recordings were accomplished using standard two-electrode voltage clamp techniques [Stuhmer, W., et al., Methods in Enzymology, 1992, 207, 319–339]; voltage-clamp protocols consisted of 500–750 milliseconds (“ms”) duration step depolarizations, from a holding potential of −60 mV, to a final voltage up to +140 mV in 20 mV steps. The experimental media (modified Barth's solution) consisted of millimolar (“mM”): NaCl (88), NaHCO3 (2.4), KCl (1.0), HEPES (10), MgSO4 (0.82), Ca(NO3)2 (0.33), CaCl2 (0.41); pH 7.5.

[2] = system: rat small intestine (ileum) segments; assay: Rat small intestine (ileum) strip relaxation (nifedipine-sensitive force); parameters: species or system rat (Sprague Dawley); conditions: integral of nifedipine-sensitive force pre- and 30 min post-compound; compound concentration not given
Excerpt: The ability of the compounds of the invention to relax rat small intestine tissue as a model for the treatment of irritable bowel syndrome is described as follows. Male rats (Harlan, Sprague Dawley, 250–350 g) were sacrificed by decapitation. A portion of small intestine (ileum) was removed and the attached connective tissues and intestinal contents removed. The ileum was cut into segments of ≧1 cm in length. The segments were mounted longitudinally between fixed hooks in organ baths containing warm (37° C.) physiological salt solution (composition in mM: NaCl 118.4, KCl 4.7, KH2PO4 1.2, MgSO4 1.2, CaCl2 1.8, Glucose 10.1, NaHCO3 25; gassed with 95% O2/5% CO2, pH 7.4). A stable tension of ˜1.5 g was maintained in the tissue segments during the equilibration period of 45 minutes. Changes in muscle tension were measured with isometric force transducers (Grass, FT-03C) and recorded using AcqKnowledge data acquisition system (AcqKnowledge for MP100WS, Biopac Systems Inc., Goleta, Calif.). Compound or vehicle was added in the baths for 30 minutes. “Zero” active force was established at the end of the experiment using nifedipine (20 μM). The effects of compounds or vehicle on force was determined by measuring the integral of nifedipine-sensitive force (including resting tone and spontaneous contractions) pre- and 30 min post-compound (or vehicle) addition. Results are expressed as the percentage inhibition of force. DMSO vehicle inhibited force (integral) by −0.6±3.0% (n=25).

Row | Structure (SMILES) | % MaxiK opening ([1]; at 20 μM) | % inhibition of force (RSI strips) [2] | % MaxiK opening ([1]; at 1 μM)
1 | O=c1[nH]c2ccc(C(F)(F)F)cc2c(-c2cc(Cl)ccc2O)c1SCC(O)CN1CCCC1 (stereo not shown) [Example 81, 4-(5-Chloro-2-hydroxyphenyl)-3-[[2-hydroxy-3-(1-pyrrolidinyl)propyl]thio]-6-(trifluoromethyl)-2(1H)-quinolinone] | 192% | – | –
2 | O=c1[nH]c2ccc(C(F)(F)F)cc2c(-c2cc(Cl)ccc2O)c1SCC(O)CN1CCSCC1 (stereo not shown) [Example 85, 4-(5-Chloro-2-hydroxyphenyl)-3-[[2-hydroxy-3-(4-thiomorpholinyl)propyl]thio]-6-(trifluoromethyl)-2(1H)-quinolinone] | 319% | 40% | –
3 | COc1ccc(Cl)cc1-c1c(SCC(O)CN2CCSCC2)c(=O)[nH]c2ccc(C(F)(F)F)cc12 (stereo not shown) [Example 90, 4-(5-Chloro-2-methoxyphenyl)-3-[[2-hydroxy-3-(4-thiomorpholinyl)propyl]thio]-6-(trifluoromethyl)-2(1H)-quinolinone] | 97% | – | –
4 | COc1ccc(Cl)cc1-c1c(SCC(O)CN2CCC(O)C2)c(=O)[nH]c2ccc(C(F)(F)F)cc12 (stereo not shown) [Example 91, 4-(5-Chloro-2-methoxyphenyl)-3-[[2-hydroxy-3-(3-hydroxy-1-pyrrolidinyl)propyl]thio]-6-(trifluoromethyl)-2(1H)-quinolinone] | 125% | – | –
5 | COc1ccc(Cl)cc1-c1c(SCC(O)CN2CCN(C)CC2)c(=O)[nH]c2ccc(C(F)(F)F)cc12 (stereo not shown) [Example 102, 4-(5-Chloro-2-methoxyphenyl)-3-[[2-hydroxy-3-(4-methyl-1-piperazinyl)propyl]thio]-6-(trifluoromethyl)-2(1H)-quinolinone] | 163% | – | –
6 | CN(C)CCN1CCN(CC(O)CSc2c(-c3cc(Cl)ccc3O)c3cc(C(F)(F)F)ccc3[nH]c2=O)CC1 (stereo not shown) [Example 86, 4-(5-Chloro-2-hydroxyphenyl)-3-[[3-[4-[2-(dimethylamino)ethyl]-1-piperazinyl]-2-hydroxypropyl]thio]-6-(trifluoromethyl)-2(1H)-quinolinone] | 124% | – | –
7 | CCN(CC)CC(O)CSc1c(-c2cc(Cl)ccc2O)c2cc(C(F)(F)F)ccc2[nH]c1=O (stereo not shown) [Example 74, 4-(5-Chloro-2-hydroxyphenyl)-3-[[3-(diethylamino)-2-hydroxypropyl]thio]-6-(trifluoromethyl)-2(1H)-quinolinone] | 192% | 46% | –
8 | CN1CCN(CCC(O)CSc2c(-c3cc(Cl)ccc3O)c3cc(C(F)(F)F)ccc3[nH]c2=O)CC1 (stereo not shown) [Example 4, 4-(5-Chloro-2-hydroxyphenyl)-3-[[2-hydroxy-4-(4-methyl-1-piperazinyl)butyl]thio]-6-(trifluoromethyl)-2(1H)-quinolinone] | 515% | – | –
9 | COc1ccc(Cl)cc1-c1c(SCC(O)CN2CCN(C(C)=O)CC2)c(=O)[nH]c2ccc(C(F)(F)F)cc12 (stereo not drawn) [Example 97, 4-Acetyl-alpha-[[[4-(5-chloro-2-methoxyphenyl)-1,2-dihydro-2-oxo-6-(trifluoromethyl)-3-quinolinyl]thio]methyl]-1-piperazineethanol] | 192% | – | –
10 | COc1ccc(Cl)cc1-c1c(SCC(O)CN2CCC(C)CC2)c(=O)[nH]c2ccc(C(F)(F)F)cc12 (stereo not shown) [Example 107, 4-(5-Chloro-2-methoxyphenyl)-3-[[2-hydroxy-3-(4-methyl-1-piperidinyl)propyl]thio]-6-(trifluoromethyl)-2(1H)-quinolinone] | 115% | – | –
11 | O=c1[nH]c2ccc(C(F)(F)F)cc2c(-c2cc(Cl)ccc2O)c1SCC(O)CN1CCN(CCO)CC1 (stereo not shown) [Example 84, 4-(5-Chloro-2-hydroxyphenyl)-3-[[2-hydroxy-3-[4-(2-hydroxyethyl)-1-piperazinyl]propyl]thio]-6-(trifluoromethyl)-2(1H)-quinolinone] | 287% | 55% | –
12 | COc1ccc(Cl)cc1-c1c(SCC(O)CN2CCN(c3ncccn3)CC2)c(=O)[nH]c2ccc(C(F)(F)F)cc12 (stereo not shown) [Example 92, 4-(5-Chloro-2-methoxyphenyl)-3-[[2-hydroxy-3-[4-(2-pyrimidinyl)-1-piperazinyl]propyl]thio]-6-(trifluoromethyl)-2(1H)-quinolinone] | – | – | 85^⋄ %
13 | O=c1[nH]c2ccc(C(F)(F)F)cc2c(-c2cc(Cl)ccc2O)c1SCC(O)CN1CCOCC1 (stereo not shown) [Example 82, 4-(5-Chloro-2-hydroxyphenyl)-3-[[2-hydroxy-3-(4-morpholinyl)propyl]thio]-6-(trifluoromethyl)-2(1H)-quinolinone] | 292% | – | –
14 | COc1ccc(Cl)cc1-c1c(SCC(O)CN2CCN(CCO)CC2)c(=O)[nH]c2ccc(C(F)(F)F)cc12 (stereo not shown) [Example 79, 4-(5-Chloro-2-methoxyphenyl)-3-[[2-hydroxy-3-[4-(2-hydroxyethyl)-1-piperazinyl]propyl]thio]-6-(trifluoromethyl)-2(1H)-quinolinone] | 150% | 10% | –
15 | CN(C)CCCN(C)CC(O)CSc1c(-c2cc(Cl)ccc2O)c2cc(C(F)(F)F)ccc2[nH]c1=O (stereo not shown) [Example 87, 4-(5-Chloro-2-hydroxyphenyl)-3-[[3-[[3-(dimethylamino)propyl]methylamino]-2-hydroxypropyl]thio]-6-(trifluoromethyl)-2(1H)-quinolinone] | 214% | – | –
